Experimental data as given in US10751417B2, “Sustained release delivery systems comprising traceless linkers” (NOVARTIS AG, priority 2017, dated 2020).

Experiment: Release study 8-4a: model traceless linker-drug conjugates M1-M19 held in 1×PBS at 37 °C, HPLC-UV/MS
Type: physicochemical
Details: 1 mM in 1×PBS, first order fit, rounded to nearest whole day
Method: 8-4a. Release Study Protocol for M1-M19 Model Traceless Linker-Drug Conjugates In Vitro
In this study a series of model traceless linker-drug conjugates, in which the drug is a low molecular weight amine-containing compound, was held in 1×PBS at 37° C. These reactions were sampled at various timepoints and analyzed to determine concentration of remaining starting compound, as well as concentration of the released amine-containing drug (p-methoxybenzylamine, 2-amino-pyridine, p-methoxyaniline, or N-methyl-p-methoxybenzylamine). Half-lives for the parent degradation and the half-lives of release for the amine-containing drug were calculated.
Method for Estimation of Amine-Containing Drug Release Rates from M1-M19
Each compound M1-M19 was prepared as a 0.1 M stock solution in DMF, as were a set of standard solutions for the released amine-containing drug (4-methoxybenzylamine, 2-aminopyridine, p-methoxyaniline, and N-methyl-p-methoxybenzylamine). A 35 μL aliquot of each solution was added to 3.465 mL of PBS to obtain 1 mM solutions of each conjugate or amine-containing drug. A 150 μL aliquot of each 1 mM solution was dispensed into LCMS vials with a polypropylene insert; 2 vials were prepared for each compound at each time point.
The vials were incubated at 37° C. At each time point (e.g., 0, 1, 5, 7, 14, 21, 28, 35, 49, and 56 days), two vials of each conjugate were removed from the incubator and frozen at −20° C. to avoid further hydrolysis. All samples were thawed and analyzed in one batch after completion of the release study using the analytical HPLC method described below. Each sample was analyzed twice. Control solutions of the amine-containing drugs were prepared prior to analysis and were analyzed as is without prior incubation at 37° C.
Analytical HPLC-MS Conditions for Study 8.4a
HPLC: Thermo Accela HPLC and Autosampler; Autosampler Tray Temperature: 8° C.; Injection Volume: 20 μL; Column: Phenomenex Kinetex C18, 2.1×50 mm, 2.6 μm. Column Temperature: Ambient; Mobile Phases: A=0.1% formic acid in water; B=0.1% formic acid in acetonitrile; Flow Rate: 200 μL/min. Gradient (time/% B): 0/0, 3/0, 10/80, 15/80, 15.1/0, 18/0.
UV: Thermo Accela PDA; Scan Range: 200-400 nm; Wavelength Step: 1 nm; Sample Rate: 20 Hz; Filter Bandwidth: 9 nm; MS: Thermo LTQ XL; Ionization Mode: ESI; Spray Voltage: 0 V at time 0-1 minutes then switched to 4 kV; Capillary Temperature: 250° C.; Divert Valve: LC eluate to waste at time 0-1 minutes then flow diverted MS; Mass Range: 120-800 Da.
The composition of the solution was evaluated at each timepoint using HPLC. Parent, intermediate and released amine-containing drug peaks were assigned by MS detection, and the relative amounts of each species were determined by integration of the peaks from the chromatogram generated using UV absorbance detection at 272 nm. The mean peak area for each compound M1-M19 on Day 0 was assigned a normalized value of 100. For the standard of the amine-containing drug being released (e.g., p-methoxybenzylamine) the mean peak area of each standard was assigned a normalized value of 100. The absolute area under curve for each species detected were compared with these values. Run-to-run peak area reproducibility was typically within 20% on strong signal and considerably worse on weak signals, so normalized signals above 100 likely correspond to values at or approaching 100 (likely 90-100, within experimental error). The percentage of parent and amine-containing drug present in the solution were calculated by dividing the relevant peak area by the mean area that was assigned a normalized value of 100 for the same species and multiplying the result by 100. The percentage of parent and amine-containing drug present in the solution was plotted versus time and the half-life of degradation for the parent and the half-life of release for the amine-containing drug were estimated using curve-fitting software assuming first order kinetics.

Calculated stability t1/2, parent (d) | SMILES
No degradation | CNC(=O)OCC1CN(C(C)=O)CCN1CC(=O)NCc1ccc(OC)cc1 (stereo not drawn) [M9, 1-(4′-acetyl-1′-(2″-((4″′-methoxybenzyl)amino)-2″-oxoethyl)piperazin-2′-yl)methyl N-methylcarbamate]
No degradation | COc1ccc(CNC(=O)CN2CCN(C(C)=O)CC2COC2CCCCO2)cc1 (stereo not drawn) [M10, 2-(4′-acetyl-2′-(((tetrahydro-2″H-pyran-2″-yl)oxy)methyl)piperazin-1′-yl)-N-(4′″-methoxybenzyl)acetamide]

Same assay, conditions: 1 mM in 1×PBS, first order fit, rounded to nearest whole day, read-out: Calculated stability t1/2, parent (converted)

half-life at 1 mM | SMILES
37 days | CCC(=O)OCC1CN(C(=O)CCNC(=O)OCc2ccccc2)CCN1CC(=O)NCc1ccc(OC)cc1 (stereo not drawn) [M1, (4-(3′-(((benzyloxy)carbonyl)amino)propanoyl)-1-(2″-((4″′-methoxybenzyl)amino)-2″-oxoethyl)piperazin-2-yl)methyl propionate]
23 days | COc1ccc(CNC(=O)CN2CCN(C(=O)CCNC(=O)OCc3ccccc3)CC2COC(C)=O)cc1 (stereo not drawn) [M2, (4-(3′-(((benzyloxy)carbonyl)amino)propanoyl)-1-(2″-((4″′-methoxybenzyl)amino)-2″-oxoethyl)piperazin-2-yl)methyl acetate]
2 days | COCC(=O)OCC1CN(C(=O)CCNC(=O)OCc2ccccc2)CCN1CC(=O)NCc1ccc(OC)cc1 (stereo not drawn) [M3, (4-(3′-(((benzyloxy)carbonyl)amino)propanoyl)-1-(2″-((4″′-methoxybenzyl)amino)-2″-oxoethyl)piperazin-2-yl)methyl methoxyacetate]
2 days | COCC(=O)OCC1CN(C(=O)CCNC(=O)OCc2ccccc2)CCN1CC(=O)N(C)Cc1ccc(OC)cc1 (stereo not drawn) [M4, (4-(3′-(((benzyloxy)carbonyl)amino)propanoyl)-1-(2″-((4′″-methoxybenzyl)(methyl)amino)-2″-oxoethyl)piperazin-2-yl)methyl 2-methoxyacetate]
3 days | COCC(=O)OCC1CN(C(=O)CCNC(=O)OCc2ccccc2)CCN1CC(=O)Nc1ccc(OC)cc1 (stereo not drawn) [M5, (4-(3′-(((benzyloxy)carbonyl)amino)propanoyl)-1-(2′-((4″′-methoxyphenyl)amino)-2″-oxoethyl)piperazin-2-yl)methyl 2″″-methoxyacetate]
26 days | COc1ccc(CNC(=O)CN2CCN(C(C)=O)CC2COC(C)=O)cc1 (stereo not drawn) [M6, (4-acetyl-1-(2′-((4″-methoxybenzyl)amino)-2′-oxoethyl)piperazin-2-yl)methyl acetate]
3 days | COC(=O)C1CN(C(C)=O)CCN1CC(=O)NCc1ccc(OC)cc1 (stereo not drawn) [M7, methyl 4-acetyl-1-(2′-((4″-methoxybenzyl)amino)-2′-oxoethyl)piperazine-2-carboxylate]
35 days | COC(=O)OCC1CN(C(C)=O)CCN1CC(=O)NCc1ccc(OC)cc1 (stereo not drawn) [M8, (4-acetyl-1-(2′-((4″-methoxybenzyl)amino)-2′-oxoethyl)piperazin-2-yl)methyl methyl carbonate]
50 days | CC(=O)OCC1CN(C(C)=O)CCN1CC(=O)Nc1ccccn1 (stereo not drawn) [M17, 1-(4′-acetyl-1′-(2″-oxo-2″-(pyridin-2′″-ylamino)ethyl)piperazin-2′-yl)methyl acetate]
8 days | CC(=O)OCC1CN(C)CCN1CC(=O)Nc1ccccn1 (stereo not drawn) [M18, 1-(4′-methyl-1′-(2″-oxo-2″-(pyridin-2′″-ylamino)ethyl)piperazin-2′-yl)methyl acetate]
6 days | CCC1CCN(CC(=O)Nc2ccccn2)C(COC(C)=O)C1 (stereo not drawn) [M19, 1-(4′-ethyl-1′-(2″-oxo-2″-(pyridin-2″′-ylamino)ethyl)piperidin-2′-yl)methyl acetate]

Experiment: Release study 8-4b: degradation of model conjugates M20-M27 in aqueous DMF:PBS at 37 °C, HPLC-UV/MS
Type: physicochemical
Details: 1 mM in 2:1 DMF:PBS, first order fit, rounded to nearest whole day
Method: 8-4b. M20-M27 In Vitro Release Study
In this study, a series of model traceless linker-drug conjugates M20-M27 was held in aqueous solution at 37° C. These reactions were sampled at various timepoints and analyzed to determine the concentration of remaining starting compound. The analytical method was not optimized to determine concentration of the amine-containing drug. Half-life of degradation for the parent was calculated.
Method for Estimation of Conjugate Degradation Rates for M20-M27
Each compound M20-M27 was prepared as a 0.1 M stock solution in DMF. A 35 μL aliquot of each solution was added to 3.465 mL of 2:1 DMF:PBS (for compound M24: 3:1 DMF:PBS) to obtain 1 mM solutions of each compound M20-M27. The reaction vials were held at 37° C. At each time point (e.g., 0, 1, 3, 8, 14, 21, 28, 35, 49, 56, 70, 92 days) analytical samples were prepared by collecting 150 μL from each 1 mM solution and diluting with 75 μL DMF. Two analytical samples were collected from each reaction vial at each time point and stored at 4° C. All samples were analyzed in one batch after completion of the release study. Each sample was analyzed twice using an analytical HPLC method described below.
The composition of the reaction solution was evaluated at each timepoint using HPLC. Compound M20-M27 peaks were assigned by MS detection, and the integration of the peak from the chromatogram generated using UV absorbance detection at 272 nm was determined. The mean peak area for each compound M20-M27 on Day 0 was assigned a normalized value of 100. The absolute area under the curve at each timepoint was compared with these values. Run-to-run peak area reproducibility was typically within 20% on strong signal and considerably worse on weak signals, so normalized signals above 100 likely correspond to values at or approaching 100 (likely 90-100, within experimental error). The percentage of compounds M20-M27 remaining in the solution were calculated by dividing the relevant peak area by the mean area that was assigned a normalized value of 100 and multiplying the result by 100. The percentage of compound M20-M27 present in the solution was plotted versus time and the half-life of degradation was estimated using curve-fitting software assuming first order kinetics.
Analytical HPLC-MS Conditions for Study 8.4b.
All settings the same as for analytical HPLC-MS conditions for study 8.4a except the following: Mobile Phases: A=5 mM ammonium hydroxide in water; B=5 mM ammonium hydroxide in acetonitrile; Flow Rate: 400 μL/min: Gradient (time/% B): 0/10, 0.5/10, 4/80, 8/80, 8.1/10, 12/10. Divert valve switched at 0.5 minutes after sample injection.

SMILES | Calculated stability t1/2, parent (d)
COc1ccc(CNC(=O)CN2CCN(C(=O)CCNC(=O)OCc3ccccc3)CC2CO[Si](OC(C)C)(C(C)C)C(C)C)cc1 (stereo not drawn) [M26, benzyl N-(3-(3′-(((isopropoxydiisopropylsilyl)oxy)methyl)-4′-(2″-((4′′′-methoxybenzyl)amino)-2″-oxoethyl)piperazin-1′-yl)-3-oxopropyl)carbamate] | No degradation
CCO[Si](OCC1CN(C(=O)CCNC(=O)OCc2ccccc2)CCN1CC(=O)NCc1ccc(OC)cc1)(C(C)C)C(C)C (stereo not drawn) [M27, benzyl N-(3-(3′-(((ethoxydiisopropylsilyl)oxy)methyl)-4′-(2″-((4′′′-methoxybenzyl)amino)-2″-oxoethyl)piperazin-1′-yl)-3-oxopropyl)carbamate] | No degradation

Same assay, conditions: 1 mM in 2:1 DMF:PBS, first order fit, rounded to nearest whole day, read-out: Calculated stability t1/2, parent (converted)

SMILES | half-life at 1 mM
CC[Si](CC)(OCC1CN(C(=O)CCNC(=O)OCc2ccccc2)CCN1CC(=O)NCc1ccc(OC)cc1)OC(C)C (stereo not drawn) [M20, Benzyl N-(3-(3′-(((diethyl(isopropoxy)silyl)oxy)methyl)-4′-(2″-((4′″-methoxybenzyl)amino)-2″-oxoethyl)piperazin-1′-yl)-3-oxopropyl)carbamate] | 51 days
CC[Si](CC)(OCC1CN(C(=O)CCNC(=O)OCc2ccccc2)CCN1CC(=O)NCc1ccc(OC)cc1)OC1CCOCC1 (stereo not drawn) [M21] | 126 days
CC[Si](CC)(OCCOCCOC)OCC1CN(C(=O)CCNC(=O)OCc2ccccc2)CCN1CC(=O)NCc1ccc(OC)cc1 (stereo not drawn) [M22] | 23 days
CCOCC(C)O[Si](CC)(CC)OCC1CN(C(=O)CCNC(=O)OCc2ccccc2)CCN1CC(=O)NCc1ccc(OC)cc1 (stereo not drawn) [M23] | 47 days
CCC(C)O[Si](CC)(CC)OCC1CN(C(=O)CCNC(=O)OCc2ccccc2)CCN1CC(=O)NCc1ccc(OC)cc1 (stereo not drawn) [M25] | 80 days

Same assay, conditions: 1 mM in 3:1 DMF:PBS (compound M24), first order fit, read-out: Calculated stability t1/2, parent (converted)

SMILES | half-life at 1 mM
CC[Si](CC)(OCC(C)C)OCC1CN(C(=O)CCNC(=O)OCc2ccccc2)CCN1CC(=O)NCc1ccc(OC)cc1 (stereo not drawn) [M24] | 36 days
